Values of other authors in patent US7625901B2, “Substituted monocyclic CGRP receptor antagonists” (Merck & Co., Inc., priority 2006, dated 2009).
No end group written: not given here.

Legend:
[1] = test system: diameter of the middle meningeal artery; conditions: rats, electrical stimulation of the dura mater, prior administration
facial blood flow [2] = conditions: rat, trigeminal ganglion stimulation
[3] = test system: headache induced by CGRP infusion; conditions: control group
facial blood flow [4] = conditions: marmoset, electrical stimulation of the trigeminal ganglion
[5] = test system: acute attacks of migraine; conditions: clinical trials

| Compound | block of increased diameter of the middle meningeal artery [1] | inhibition of increased facial blood flow (facial blood flow [2]) | prevention of headache induced by CGRP infusion [3] | block of increase in facial blood flow (facial blood flow [4]) | treating acute attacks of migraine [5] |
| --- | --- | --- | --- | --- | --- |
| CGRP(8-37): a peptide CGRP antagonist; fragment of CGRP that lacks seven N-terminal amino acid residues (VTHRLAGLLSRSGGVVKNNFVPTNVGSKAF; ends and bridges not checked; UniProt P06881 90-119, looked up, fragment) | blocked | inhibited |  |  |  |
| NCCCC[C@H](NC(=O)[C@@H](Cc1cc(Br)c(O)c(Br)c1)NC(=O)N1CCC(N2Cc3ccccc3NC2=O)CC1)C(=O)N1CCN(c2ccncc2)CC1 [BIBN4096BS] |  |  | able to prevent headache | could be blocked | effective |
